Data from patent US20250353833A1, “DPP9 BINDING COMPOUNDS” (UNIVERSITEIT ANTWERPEN, priority 2022, published 2025).

How the values were obtained:
[1] = target: DPP9 (Homo sapiens (Human), UniProt Q86TI2); test: DPP9 enzyme inhibition, IC50 measurement (Ala-Pro-pNA release); format: biochemical; settings: for IC50 / SI DPP9/8: Table 3; for IC50: mean ± SD (n = 3), read-out: DPP9 IC50 ± SD; for SI DPP9/8 / SI DPP9/DPP8: selectivity index; for SI DPP9/8: DPP8 IC50 over DPP9 IC50; for SI DPP9/DPP8: Table 4
Procedure: DPP4 was purified from human seminal plasma as described previously.^[3]
(§1) IC50 measurements. […] The Magellan software was used to process the data, which was then fitted using a non-linear fit model in GraFit 7. […] As a blank, the assay buffer was used instead of the enzyme. Screening measurements were carried out in duplo and IC50 values were determined in triplo with at least eight different inhibitor concentrations as described by Van Goethem et al.

[2] = target: DPP8 (Homo sapiens (Human), UniProt Q6V1X1); test: DPP8 enzyme inhibition, IC50 measurement (Ala-Pro-pNA release); format: biochemical; settings: Table 3; mean ± SD (n = 3); read-out: DPP8 IC50 ± SD
Procedure: as §1

DPP9, sequence (Q86TI2 whole entry): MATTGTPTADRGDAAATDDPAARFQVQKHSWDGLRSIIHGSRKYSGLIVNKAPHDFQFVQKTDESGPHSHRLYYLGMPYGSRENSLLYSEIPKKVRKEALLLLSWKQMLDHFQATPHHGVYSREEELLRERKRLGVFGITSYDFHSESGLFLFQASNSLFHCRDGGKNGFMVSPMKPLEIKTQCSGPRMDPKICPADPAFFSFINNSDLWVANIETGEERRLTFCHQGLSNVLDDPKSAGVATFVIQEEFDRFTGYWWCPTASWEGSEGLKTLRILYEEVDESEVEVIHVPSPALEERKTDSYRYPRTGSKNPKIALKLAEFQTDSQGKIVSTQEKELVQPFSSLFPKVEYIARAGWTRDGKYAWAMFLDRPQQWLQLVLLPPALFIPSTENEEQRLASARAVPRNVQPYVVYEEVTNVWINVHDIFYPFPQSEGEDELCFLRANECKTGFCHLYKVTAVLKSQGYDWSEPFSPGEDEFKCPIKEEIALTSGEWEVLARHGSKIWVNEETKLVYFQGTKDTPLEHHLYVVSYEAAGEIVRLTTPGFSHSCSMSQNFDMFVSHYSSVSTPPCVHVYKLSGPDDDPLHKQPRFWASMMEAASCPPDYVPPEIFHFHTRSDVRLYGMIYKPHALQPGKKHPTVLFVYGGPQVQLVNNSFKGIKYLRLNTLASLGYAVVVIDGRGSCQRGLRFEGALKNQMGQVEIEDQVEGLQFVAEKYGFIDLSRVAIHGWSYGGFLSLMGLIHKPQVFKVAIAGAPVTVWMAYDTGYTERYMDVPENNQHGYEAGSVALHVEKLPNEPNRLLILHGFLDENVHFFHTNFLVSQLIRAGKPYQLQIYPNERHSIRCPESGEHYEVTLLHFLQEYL
DPP8, sequence (Q6V1X1 whole entry): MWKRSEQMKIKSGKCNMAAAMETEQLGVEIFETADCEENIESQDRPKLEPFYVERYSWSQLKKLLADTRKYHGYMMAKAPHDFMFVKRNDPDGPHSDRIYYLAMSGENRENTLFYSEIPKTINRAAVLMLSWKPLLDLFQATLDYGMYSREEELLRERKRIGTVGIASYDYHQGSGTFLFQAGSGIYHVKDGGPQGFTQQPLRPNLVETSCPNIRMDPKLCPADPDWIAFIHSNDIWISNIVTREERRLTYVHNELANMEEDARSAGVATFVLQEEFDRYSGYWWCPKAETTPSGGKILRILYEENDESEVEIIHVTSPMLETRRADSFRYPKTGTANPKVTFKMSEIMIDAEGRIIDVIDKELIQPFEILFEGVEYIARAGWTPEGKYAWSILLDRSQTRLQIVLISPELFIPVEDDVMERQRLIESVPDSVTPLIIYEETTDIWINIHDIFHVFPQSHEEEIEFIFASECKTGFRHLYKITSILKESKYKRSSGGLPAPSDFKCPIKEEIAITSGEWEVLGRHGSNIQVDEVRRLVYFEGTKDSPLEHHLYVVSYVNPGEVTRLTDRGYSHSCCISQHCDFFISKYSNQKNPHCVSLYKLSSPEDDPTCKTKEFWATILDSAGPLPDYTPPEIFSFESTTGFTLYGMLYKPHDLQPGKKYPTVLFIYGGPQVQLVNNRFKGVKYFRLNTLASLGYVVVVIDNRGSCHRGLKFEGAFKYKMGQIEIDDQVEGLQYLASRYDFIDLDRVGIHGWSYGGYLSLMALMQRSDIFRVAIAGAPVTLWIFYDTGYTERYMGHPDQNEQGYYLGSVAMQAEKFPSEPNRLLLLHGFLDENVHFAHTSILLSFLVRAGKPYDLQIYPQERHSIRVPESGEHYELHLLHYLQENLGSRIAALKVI

| IC50 [1] [µM] | SI DPP9/8 [1] | IC50 [2] [µM] | SI DPP9/DPP8 [1] | Compound |
| --- | --- | --- | --- | --- |
| 0.0483 | 17.0 | 0.823 ± 0.185 |  | O=C(NCc1ccc(F)cc1F)OC12CC3CC(CC(NCC(=O)N4Cc5ccccc5C4)(C3)C1)C2 [Compound 39, 3-((2-(isoindolin-2-yl)-2-oxoethyl)amino)adamantan-1-yl (2,4-difluorobenzyl)carbamate] |
| 0.0518 ± 0.0157 | 20.3 | 1.05 ± 0.133 |  | CC(C)(C)NC(=O)NC12CC3CC(CC(NCC(=O)N4Cc5ccccc5C4)(C3)C1)C2.Cl [Compound 40, 1-(tert-butyl)-3-(3-((2-(isoindolin-2-yl)-2-oxoethyl)amino)adamantan-1-yl)urea hydrochloride] |
| 0.0328 | 18.0 | 0.592 ± 0.0877 |  | O=C(NC12CC3CC(CC(C3)C1)C2)NC12CC3CC(CC(NCC(=O)N4Cc5ccccc5C4)(C3)C1)C2 [Compound 41, 1-(adamantan-1-yl)-3-(3-((2-(isoindolin-2-yl)-2-oxoethyl)amino)adamantan-1-yl)urea] |
| 0.0378 ± 0.0133 | 13.4 | 0.505 ± 0.0257 |  | Cl.O=C(NCc1ccccc1)NC12CC3CC(CC(NCC(=O)N4Cc5ccccc5C4)(C3)C1)C2 [Compound 42, 1-benzyl-3-(3-((2-(isoindolin-2-yl)-2-oxoethyl)amino)adamantan-1-yl)urea hydrochloride] |
| 0.032 | 19.9 | 0.638 ± 0.0464 |  | N#Cc1ccc(CCC(=O)NC23CC4CC(CC(NCC(=O)N5Cc6ccccc6C5)(C4)C2)C3)cc1 [Compound 44, 3-(4-cyanophenyl)-N-(3-((2-(isoindolin-2-yl)-2-oxoethyl)amino)adamantan-1-yl)propanamide] |
| 0.0143 | 57.6 | 0.824 ± 0.148 |  | CC(C)(C)OC(=O)NC12CC3CC(CC(NCC(=O)N4Cc5ccc(F)cc5C4)(C3)C1)C2 [Compound 46, tert-butyl (3-((2-(5-fluoroisoindolin-2-yl)-2-oxoethyl)amino)adamantan-1-yl)carbamate] |
| 0.259 ± 0.0358 | 10.1 | 2.62 ± 0.394 |  | NC12CC3CC(C1)CC(NCC(=O)N1Cc4ccc(F)cc4C1)(C3)C2 [Compound 47, 2-((3-aminoadamantan-1-yl)amino)-1-(5-fluoroisoindolin-2-yl)ethan-1-one bis(2,2,2-trifluoroacetate)] |
| 0.004 ± 0.001 | 85 | 0.369 ± 0.03 |  | CC(C)(C)NC(=O)NC12CC3CC(CC(NCC(=O)N4Cc5ccc(F)cc5C4)(C3)C1)C2 [Compound 48, 1-(tert-butyl)-3-(3-((2-(5-fluoroisoindolin-2-yl)-2-oxoethyl)amino)adamantan-1-yl)urea] |
| 0.0034 | 180.3 | 0.613 ± 0.154 |  | CC(C)(C)OC(=O)NC12CC3CC(CC(NCC(=O)N4Cc5cc(F)c(F)cc5C4)(C3)C1)C2 [Compound 49] |
| 0.309 ± 0.0604 | 16.9 | 5.22 ± 0.321 |  | COc1ccc2c(c1)CN(C(=O)CNC13CC4CC(C1)CC(NC(=O)OC(C)(C)C)(C4)C3)C2 [Compound 59, tert-butyl (3-((2-(5-methoxyisoindolin-2-yl)-2-oxoethyl)amino)adamantan-1-yl)carbamate] |
|  |  |  | 11 | Cc1ncsc1-c1ccc(CNC(=O)[C@@H]2C[C@@H](O)CN2C(=O)[C@@H](NC(=O)c2csc(-c3ccc(C(=O)NC45CC6CC(CC(NCC(=O)N7Cc8ccc(F)cc8C7)(C6)C4)C5)cc3)c2)C(C)(C)C)cc1 [Compound 122, (2S,4R)-1-((2S)-2-(5-(4-((3-((2-(5-fluoroisoindolin-2-yl)-2-oxoethyl)amino)adamantan-1-yl)carbamoyl)phenyl)thiophene-3-carboxamido)-3,3-dimethylbutanoyl)-4-hydroxy-N-(4-(4-methylthiazol-5-yl)benzyl)pyrrolidine-2-carboxamide] |
|  |  |  | 3 | Cc1ncsc1-c1ccc(CNC(=O)[C@@H]2C[C@@H](O)CN2C(=O)[C@@H](NC(=O)c2ccc(-c3ccc(C(=O)NC45CC6CC(CC(NCC(=O)N7Cc8ccc(F)cc8C7)(C6)C4)C5)cc3)cc2)C(C)(C)C)cc1 [Compound 123, N4-(3-((2-(5-fluoroisoindolin-2-yl)-2-oxoethyl)amino)adamantan-1-yl)-N4′-((S)-1-((2S,4R)-4-hydroxy-2-((4-(4-methylthiazol-5-yl)benzyl)carbamoyl)pyrrolidin-1-yl)-3,3-dimethyl-1-oxobutan-2-yl)-[1,1′-biphenyl]-4,4′-dicarboxamide] |
|  |  |  | 9 | Cc1ncsc1-c1ccc(CNC(=O)[C@@H]2C[C@@H](O)CN2C(=O)[C@@H](NC(=O)CCOCCOc2ccc(-c3ccc(C(=O)NC45CC6CC(CC(NCC(=O)N7Cc8ccc(F)cc8C7)(C6)C4)C5)cc3)cc2)C(C)(C)C)cc1 [Compound 125, (2S,4R)-1-((2S)-2-(3-(2-((4′-((3-((2-(5-fluoroisoindolin-2-yl)-2-oxoethyl)amino)adamantan-1-yl)carbamoyl)-[1,1′-biphenyl]-4-yl)oxy)ethoxy)propanamido)-3,3-dimethylbutanoyl)-4-hydroxy-N-(4-(4-methylthiazol-5-yl)benzyl)pyrrolidine-2-carboxamide] |

The next lines start with the compound.

| Compound | IC50 [1] [µM] | SI DPP9/8 [1] | IC50 [2] [µM] | SI DPP9/DPP8 [1] |
| --- | --- | --- | --- | --- |
| O=C(O)[C@@H]1CCCN1C(=O)OC12CC3CC(CC(NCC(=O)N4Cc5ccc(F)cc5C4)(C3)C1)C2 | 0.00803 | 114.6 | 0.92 ± 0.121 |  |
| O=C(N[C@@H](Cc1c[nH]c2ccccc12)C(=O)O)OC12CC3CC(CC(NCC(=O)N4Cc5ccc(F)cc5C4)(C3)C1)C2 | 0.00655 | 25.0 | 0.164 |  |
| 3-((2-(isoindolin-2-yl)-2-oxoethyl)amino)adamantan-1-yl tert-pentylcarbamate hydrochloride [Compound 31] | 0.378 ± 0.173 | 12.5 | 4.71 ± 1.59 |  |
| N#Cc1ccc(CNC23CC4CC(CC(NCC(=O)N5Cc6ccccc6C5)(C4)C2)C3)cc1 [Compound 26, 4-(((-3-((2-(isoindolin-2-yl)-2-oxoethyl)amino)adamantan-1-yl)amino)methyl)benzonitrile] | 0.0506 ± 0.0287 | 13.3 | 0.672 ± 0.412 |  |
| O=C(CNC12CC3CC(C1)CC(NCc1ccc(-c4ccccc4)cc1)(C3)C2)N1Cc2ccccc2C1 [Compound 27, 2-((3-(([1,1′-biphenyl]-4-ylmethyl)amino)adamantan-1-yl)amino)-1-(isoindolin-2-yl)ethan-1-one] | 0.0932 ± 0.039 | 16.5 | 1.54 ± 0.101 |  |
| CC(C)(C)OC(=O)NC12CC3CC(CC(NCC(=O)N4Cc5ccccc5C4)(C3)C1)C2 [Compound 28, tert-butyl(3-((2-(isoindolin-2-yl)-2oxoethyl)amino)adamantan-1-yl)carbamate] | 0.0367 | 31.7 | 1.14 ± 0.15 |  |
| O=C(NCCCCO)OC12CC3CC(CC(NCC(=O)N4Cc5ccccc5C4)(C3)C1)C2 [Compound 29, 3-((2-(isoindolin-2-yl)-2-oxoethyl)amino)adamantan-1-yl(4-hydroxybutyl)carbamate] | 0.243 ± 0.107 | 10.7 | 2.6 ± 0.577 |  |
| O=C(NC(c1ccc(F)cc1)c1ccc(F)cc1)OC12CC3CC(CC(NCC(=O)N4Cc5ccccc5C4)(C3)C1)C2 [Compound 32, 3-((2-(isoindolin-2-yl)-2-oxoethyl)amino)adamantan-1-yl (bis(4-fluorophenyl)methyl)carbamate] | 0.0477 | 14.0 | 0.667 ± 0.0311 |  |
| O=C(NC(c1ccccc1)c1ccccc1)OC12CC3CC(CC(NCC(=O)N4Cc5ccccc5C4)(C3)C1)C2 [Compound 33, 3-((2-(isoindolin-2-yl)-2-oxoethyl)amino)adamantan-1-yl benzhydrylcarbamate] | 0.0143 | 12.2 | 0.175 ± 0.0331 |  |
| O=C(NCCCC[C@H](NC(=O)OC12CC3CC(CC(NCC(=O)N4Cc5ccccc5C4)(C3)C1)C2)C(=O)O)OCc1ccccc1 [Compound 34, N^6-((benzyloxy)carbonyl)-N^2-(((3-((2-(isoindolin-2-yl)-2-oxoethyl)amino)adamantan-1-yl)oxy)carbonyl)-L-lysine] | 0.00174 | 22.5 | 0.0394 |  |
| O=C(N[C@H]1CC[C@H](O)CC1)OC12CC3CC(CC(NCC(=O)N4Cc5ccccc5C4)(C3)C1)C2 [Compound 35, 3-((2-(isoindolin-2-yl)-2-oxoethyl)amino)adamantan-1-yl ((1r,4R)-4-hydroxycyclohexyl)carbamate] | 0.0366 | 10.9 | 0.399 ± 0.0388 |  |
| O=C(NCc1ccccc1)OC12CC3CC(CC(NCC(=O)N4Cc5ccccc5C4)(C3)C1)C2 [Compound 36, 3-((2-(isoindolin-2-yl)-2-oxoethyl)amino)adamantan-1-yl benzylcarbamate] | 0.0738 | 15.6 | 1.15 ± 0.151 |  |
| O=C(NCc1ccncc1)OC12CC3CC(CC(NCC(=O)N4Cc5ccccc5C4)(C3)C1)C2 [Compound 37, 3-((2-(isoindolin-2-yl)-2-oxoethyl)amino)adamantan-1-yl (pyridin-4-ylmethyl)carbamate] | 0.0908 ± 0.0135 | 12.2 | 1.11 ± 0.335 |  |
| O=C(NCCCc1ccccc1)OC12CC3CC(CC(NCC(=O)N4Cc5ccccc5C4)(C3)C1)C2 [Compound 38, 3-((2-(isoindolin-2-yl)-2-oxoethyl)amino)adamantan-1-yl (3-phenylpropyl)carbamate] | 0.1 | 10.1 | 1.01 ± 0.132 |  |
| O=C(O)CNC(=O)OC12CC3CC(CC(NCC(=O)N4Cc5ccc(F)cc5C4)(C3)C1)C2 [Compound 53] | 0.0396 | 43.9 | 1.74 ± 0.0591 |  |
